Test results: patent publication US11596150B2, “Long chain glycolipids useful to avoid perishing or microbial contamination of materials” (IMD NATURAL SOLUTIONS GMBH, priority 2011, dated 2023)
Values after ≈ are worked out from the molar mass of the structure shown. Where two headings read alike, the source gives them in different places.

How the values were obtained:
[1] = tested on: Bacillus subtilis (ATCC6633); test: MIC determination in microtiter plates (non-pathogenic microorganisms); assay type: cell-based; conditions: 48 h, read-out: MIC values after 48 h
[2] = tested on: Corynebacterium variabile (DSM20132); test: as above; assay type: cell-based; conditions: 48 h, read-out: MIC values after 48 h
[3] = tested on: Lactobacillus plantarum (DSM 12028); test: as above; assay type: cell-based; conditions: Lactiplantibacillus plantarum; Lactobacillus plantarum (DSM12028); 48 h; read-out: MIC values after 48 h
[4] = tested on: Aspergillus niger (ATCC 16404); test: as above; assay type: cell-based; conditions: Aspergillus niger (ATCC16404); 48 h; read-out: MIC values after 48 h
[5] = tested on: Byssochlamys fulva (DSM62097); test: as above; assay type: cell-based; conditions: Paecilomyces fulvus, 48 h, read-out: MIC values after 48 h
[6] = tested on: Mucor plumbeus (MUCL49355); test: as above; assay type: cell-based
[7] = tested on: Dekkera bruxellensis (DSM70726); test: as above; assay type: cell-based; conditions: Brettanomyces bruxellensis, 48 h, read-out: MIC values after 48 h
[8] = tested on: Dekkera naardenensis (DSM70743); test: as above; assay type: cell-based; conditions: Brettanomyces naardenensis, 48 h, read-out: MIC values after 48 h
[9] = tested on: Saccharomyces cerevisiae (HT10); test: as above; assay type: cell-based; conditions: 48 h, read-out: MIC values after 48 h
[10] = tested on: Zygosaccharomyces bailii (DSM70492); test: as above; assay type: cell-based; conditions: 48 h, read-out: MIC values after 48 h
[11] = tested on: Zygosaccharomyces bisporus (DSM70415); test: as above; assay type: cell-based; conditions: 48 h, read-out: MIC values after 48 h
[12] = tested on: Zygosaccharomyces florentinus (DSM70506); test: as above; assay type: cell-based; conditions: Zygotorulaspora florentina, 48 h, read-out: MIC values after 48 h
[13] = tested on: Zygosaccharomyces rouxii (NCYC381); test: as above; assay type: cell-based; conditions: 48 h, read-out: MIC values after 48 h
[14] = tested on: Staphylococcus aureus (ATCC 6538P); test: microbe, parasite or virus in culture; assay type: cell-based; conditions: ATCC6538P, Mueller-Hinton Broth, 1% DMSO, 20 hours at 36° C., read-out: MIC S. aureus
[15] = tested on: Clostridium perfringens (ATCC 13124); test: microbe, parasite or virus in culture; assay type: cell-based; conditions: ATCC13124, 48 h
[16] = tested on: Aspergillus fumigatus (ATCC 1028); test: microbe, parasite or virus in culture; assay type: cell-based
[17] = tested on: Listeria welshimeri (DSM15452); test: MIC determination in microtiter plates (non-pathogenic microorganisms); assay type: cell-based; conditions: 48 h, read-out: MIC values after 48 h
Text: Various nonpathogenic bacteria, yeasts, and filamentous fungi were obtained from public culture collections and maintained as recommended in the catalogues and protocols of the respective institutions. Saccharomyces cerevisiae strain HT10 and Mucor plumbeus were originally taken from the culture collection of InterMed Discovery GmbH but deposited with MUCL as reference strains for antimicrobial susceptibility testing. These strains were maintained under liquid nitrogen and, prior to the screening, on YMG agar. Prior to the screening the yeast and bacterial strains were grown over night on SDB (medium 1), except for Bacillus subtilis, which was grown on YMG agar (medium 2) for 1 week to prepare spore suspensions. Likewise, the filamentous fungi were pre-incubated on YMG agar for 2-3 weeks to create inoculum for spore suspensions. […] For all experiments, freshly prepared spore suspensions were used. The initial concentrations for the bioassays were adjusted to 1×10^5 CFU (i.e. cells or spores, respectively) per ml. […] To adjust the initial titer prior to the bioassays, the CFU per ml was determined under the microscope using a counting chamber type “Brand Neubauer improved”; BRAND GmbH & Co KG, Wertheim, Germany). This microscopic control also served as means for assessment of the viability of the cells. […]

[18] = tested on: Talaromyces luteus (CBS348.51); test: MIC after 48 h (Example 9); assay type: cell-based; conditions: Ascospirella lutea
[19] = tested on: Pyricularia oryzae (DSM62938); test: microbe, parasite or virus in culture; assay type: cell-based; conditions: DSM62938, 48 h, read-out: MIC values after 48 h
[20] = tested on: Enterococcus faecalis (ATCC19433); test: MIC after 48 h (Example 9); conditions: ATCC19433, 48 h, read-out: MIC values after 48 h
[21] = tested on: Listeria monocytogenes (ATCC19111); test: MIC after 48 h (Example 9); conditions: ATCC19111, 48 h, read-out: MIC values after 48 h
Bacillus cereus = test: MIC / growth inhibition after 48 h (Example 9); conditions: ATCC11778, 48 h, read-out: MIC values after 48 h
Candida albicans = test: MIC / growth inhibition after 48 h (Example 9); conditions: ATCC10231, 48 h, read-out: MIC values after 48 h
Clostridium sporogenes = test: MIC / growth inhibition after 48 h (Example 9); conditions: ATCC3584, 48 h, read-out: MIC values after 48 h

CCCCC(CCCC(O)C(O)CCCCCCCCCCCCCCC(O)C(=O)O)OC1OCC(O)C(O)C1OC1OCC(O)C(O)C1OC1OC(COC(=O)CC(C)C)C(O)C(O)C1O (stereo not shown) [[12]] gave an MIC [1] of 1.6 µg/mL (≈ 1.65 µM), an MIC [2] of under 0.8 µg/mL and an MIC [3] of 25 µg/mL (≈ 25.7 µM). It also gave an MIC [4] of 6.3 µg/mL (≈ 6.49 µM), an MIC [5] of 6.3 µg/mL (≈ 6.49 µM) and an MIC ([6]; M. plumbeus (MUCL49355), SDB medium, day not given (Table 19)) of 100. For the same compound, the MIC ([6]; M. plumbeus (MUCL49355), SDB medium, day not printed (first line of Table 19)) was 50, the MIC ([6]; Mucor plumbeus (MUCL49355), 48 h, read-out: MIC values after 48 h) was 6.3 µg/mL (≈ 6.49 µM) and the MIC [7] was 6.3 µg/mL (≈ 6.49 µM). It also gave an MIC [8] of 6.3 µg/mL (≈ 6.49 µM), an MIC [9] of 6.3 µg/mL (≈ 6.49 µM) and an MIC [10] of 6.3 µg/mL (≈ 6.49 µM). For the same compound, the MIC [11] was 12.5 µg/mL (≈ 12.9 µM), the MIC [12] was 6.3 µg/mL (≈ 6.49 µM) and the MIC [13] was 6.3 µg/mL (≈ 6.49 µM). The MIC [14] was 200 µg/mL (≈ 206 µM), the MIC ([15]; read-out: MIC C. perfringens) was 60 µg/mL (≈ 61.8 µM) and the MIC ([15]; read-out: MIC values after 48 h) was 60 µg/mL (≈ 61.8 µM). It also gave an MIC ([16]; Aspergillus fumigatus (ATCC1028), 48 h, read-out: MIC values after 48 h) of 20 µg/mL (≈ 20.6 µM), an MIC ([16]; Aspergillus fumigatus, ATCC1028, 72 h, Potato Dextrose Broth, 1% DMSO, 3 days at 28° C., read-out: MIC A. fumigatus) of 20 µg/mL (≈ 20.6 µM) and an MIC [17] of 25 µg/mL (≈ 25.7 µM). It also gave an MIC [18] of 25 µg/mL (≈ 25.7 µM), an MIC [19] of 25 µg/mL (≈ 25.7 µM) and an MIC [20] of 50 µg/mL (≈ 51.5 µM). For the same compound, the MIC [21] was 50 µg/mL (≈ 51.5 µM), the MIC (Bacillus cereus) was 12.5 µg/mL (≈ 12.9 µM) and the MIC (Candida albicans) was 25 µg/mL (≈ 25.7 µM). The MIC (Clostridium sporogenes) was 50 µg/mL (≈ 51.5 µM).
